Data published in patent US11180510B2, “Xanthine derivatives and uses thereof as inhibitors of bromodomains of BET proteins” (Centre national de la recherche scientifique, priority 2017, dated 2021).

Target: T1, Brd2(BD1) (Homo sapiens, UniProt P25440)
T1 construct: GST tagged bromodomain proteins were purchased from BPS Bioscience; purchased BPS Bioscience
Test: HTRF BET selectivity profile, Brd2(BD1)
Assay type: binding

T1 sequence (P25440 74-180 limits assumed): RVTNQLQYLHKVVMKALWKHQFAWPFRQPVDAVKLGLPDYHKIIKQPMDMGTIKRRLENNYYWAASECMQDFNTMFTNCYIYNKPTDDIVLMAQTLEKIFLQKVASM

IC50 (read-out: Brd2(BD1) IC50): 183 nM
Ratio 2-1 vs 2-2 (selectivity Brd2(BD1) vs Brd2(BD2), HTRF IC50): 7
SMILES: CCn1cnc2c1c(=O)[nH]c(=O)n2Cc1ccc(CNS(=O)(=O)c2ccc(OC3CCOCC3)c(F)c2)cc1 [Compound 43c]
